Values of other authors as cited in patent US20090123919A1, “Diagnosing Pathological Conditions Using Interallelic Epigenetic Variations” (Allelis Diagnostics Ltd., priority 2005, published 2009).

Test system: aneuploid genotypes
Conditions: in the presence of 5-azacytidine, an inhibitor of DNA methylation

Which “loss of the inherent temporal order of allelic replication” value does the source give for Nc1ncn([C@@H]2O[C@H](CO)[C@@H](O)[C@H]2O)c(=O)n1 [5-azacytidine] here?
The value was “can be reversed”.
